These results are taken from patent US5618685A, “Activation of herpes simplex virus protease by kosmotropes” (priority 1995, dated 1997).

In assay [1] the target is T1, HSV-1 protease (Human herpesvirus 1, UniProt P10210). Description: biochemical. On the procedure: For experiments examining anion effects, buffer solutions were prepared with the sodium salt of the anion and the pH was adjusted to 7.5 with concentrated HCl where necessary (i.e., citrate, glutamate, malate). An exception was phosphate, where NaH2 PO4 was prepared in the buffer and the pH adjusted upward with NaOH.
T1 sequence (P10210 1-247): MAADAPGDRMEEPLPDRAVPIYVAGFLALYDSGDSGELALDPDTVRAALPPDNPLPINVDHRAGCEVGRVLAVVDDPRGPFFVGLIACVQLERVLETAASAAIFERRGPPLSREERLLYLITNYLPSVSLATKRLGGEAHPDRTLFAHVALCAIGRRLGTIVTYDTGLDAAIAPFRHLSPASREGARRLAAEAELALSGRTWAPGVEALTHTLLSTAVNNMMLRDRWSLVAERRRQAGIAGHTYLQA
Enzyme activity was measured with the peptide substrates […]-amide (SEQ.ID.NO.:2) and […]-amide (SEQ.ID.NO.:1), using HPLC for the separation of products from substrates as described in Darke et al., 1994, supra. The C-terminal cleavage products of enzymatic hydrolysis are SEKFKMW-amide (SEQ.ID.NO.:3) and […]-amide (SEQ.ID.NO.:4) respectively. Quantitation of the C-terminal cleavage product, containing tryptophan, in the HPLC effluent was with a Hewlett-Packard model 1046A fluorescence detector (excitation at 280 nm, emission at 350 nm). […] Reactions were performed at 37° C. in a pH 7.5 buffer containing 52 mM 4-morpholinoethanesulfonic acid (MES), 52 mM 3-(N-tris(hydroxymethyl)methylamino)-2-hyroxy-propanesulfonic acid (TAPSO) and 100 mM diethanolamine, 1 mM EDTA, 1 mM dithiothreitol, 0.1% bovine serum albumin, and the various additives listed in the Tables. Reactions were initiated by the addition of a stock HSV-1 protease solution (0.625 mg/ml) in the above buffer with no additives to a final concentration of 0.025 mg/ml (0.94 μM) and quenched with the addition of 5% H3 PO4. Activity assays comparing various anion and cosolvents effects were conducted with a substrate concentration of 53 μM. Activity in Tables 1 and 2 is expressed as relative to the case where no additive was present in the reaction mixture.

The target of assay [2] is T1, HSV-1 protease. The assay is described as follows: Susceptibility of HSV-1 protease to trypsin proteolysis (SDS-PAGE). The assay is classed as biochemical, Herpes Simplex Virus type 1. More on the design: Autoprocessing of the precursor to the mature 246 amino acid form of the enzyme; made in house; host or cells: E. coli. Particulars: trypsin 0.1 mg/ml, 37° C., 60 min; 0.8M citrate. On the procedure:
HSV-1 protease was incubated for 60 minutes at 37° C. with or without trypsin, either with or without 0.8M sodium citrate present, as described in Example 3. Samples were analyzed with SDS-PAGE (16% gels) and stained with Coomassie brilliant blue. Lanes 1 and 2, no trypsin added; lanes 3 and 4, trypsin added at 0.1 mg/ml. Lanes 1 and 3, no citrate added; lanes 2 and 4, sodium citrate present at 0.8M during incubation. The arrow on the right indicates the position of 27 kDa, undigested HSV-1 protease. Molecular weight markers are in the leftmost lane, with the corresponding molecular weights marked in kDa.
In accordance with this invention, the sensitivity of native HSV-1 protease to trypsin was examined as a function of kosmotrope concentration. Following treatment of the enzyme with trypsin for 60 minutes, SDS-PAGE was performed to qualitatively examine the extent of trypsin digestion of the HSV-1 protease.
Trypsin treatment of the HSV-1 protease (0.15 mg/ml) was performed with 0.1 mg/ml trypsin at 37° C. for 60 min. Trypsin activity s measurements with the fluorogenic substrate BOC-Val-Pro-Arg-7-amino-4-methylcoumarin were performed at 37° C. After trypsin treatment, samples were boiled with SDS gel sample buffer and small volumes of sodium citrate were added to some samples to equalize the extent of band spreading on the gel. […]

[3] abbreviates: pH 7.5, read-out: Relative activity of HSV-1 protease.
[4] abbreviates: anion (Na+ salt) at ionic strength = 0.8, 37° C., pH 7.5, substrate 53 μM, relative to no additive.
The mark [5] stands for this setting: anion (Na+ salt) 0.2M, 37° C., pH 7.5, substrate 53 μM, relative to no additive, 200000 µM.
Setting [6] is: anion (Na+ salt) 0.8M, 37° C., pH 7.5, substrate 53 μM, relative to no additive, 800000 µM.

Structures can show the parent of a compound that is named as a salt. Where two headings read alike, the source gives them in different places.

On to `N.N.O=S(=O)(O)O` [(NH4)2 SO4], for which the “effect of anion/salt on HSV-1 protease activity (in words)” value (“effect of anion/salt” below) in assay [1] is “slightly less activating”.
As for `[Br-].[K+]` [Br^-, bromide], the “Relative activity of HSV-1 protease” value in assay [1] (pH 7.5, 200000 µM) is on record as 0.23; in assay [1] (pH 7.5, 800000 µM), 0.07.
As for `CC(=O)O` [CH3 COO^-], in assay [1] (setting [3]), the activity at 200000 µM amounted to 171% and the activity at 800000 µM worked out at 703%.
`O=C(O)CC(O)(CC(=O)O)C(=O)O` [Citrate, sodium citrate]: in assay [1], the “effect of anion/salt” value is reported as “strong activation” and the “kcat /KM” value turned out to be 4500 M⁻¹ s⁻¹. The “amount of peptide cleavage product (SEKFKMW-amide) that accumulated in 60 minutes” value in assay [1] (0.8M sodium citrate in reaction mixture, HSV-1 protease 40 nM) is 100 pmol. For the same compound, the “amount of peptide cleavage product that accumulated in 1 minute” value in assay [1] (0.8M sodium citrate in reaction mixture, enzyme 0.93 μM) is on record as 100 pmol. In addition, the “Relative activity of HSV-1 protease” value in assay [1] (setting [4]) is 4.16. Moreover, in assay [1] (pH 7.5, read-out: enhancement of the observed hydrolytic rate (increase of activity)), the fold induction at 800000 µM stood at 202. Further, the fold induction at 800000 µM in assay [1] (pH 7.5, read-out: increase of the protease activity (catalytic efficiency)) worked out at 860. In assay [2], the “susceptibility of HSV-1 protease to trypsin digestion (in words)” value is on record as “loss in susceptibility of HSV-1 protease to trypsin digestion”.
Turning to `[O-][Cl+3]([O-])([O-])O` [ClO4^-, perchlorate], the “effect of anion/salt” value in assay [1] is reported as “inhibitory”. Besides, the figures for the “Relative activity of HSV-1 protease” value in assay [1] (setting [5]) and in assay [1] (setting [6]) were 0.06 and 0.00, respectively.
The corresponding values for `Cl` [Cl^-, Chloride] are “little effect”, 0.96 and 1.08.
For `N[C@H](CCC(=O)O)C(=O)O` [D-glutamate], the activity at 200000 µM in assay [1] (setting [3]) was determined as 290%.
Still for that read-out and setting: the figure for `O=C(O)C[C@@H](O)C(=O)O` [D-malate] is 409%.
With `CN(C)C=O` [Dimethyl formamide], in assay [1], the “effect of co-solvent on HSV-1 protease activity (in words)” value (“effect of co-solvent” below) is reported as “strongly inactivating”.
As for `C[S+](C)[O-]` [Dimethyl sulfoxide], the inhibition at 2 % in assay [1] (read-out: reduction of HSV protease activity, 2% DMSO with 0.8M sodium citrate present) was found to be 8%; in assay [1] (read-out: reduction of HSV protease activity, 2% DMSO, no kosmotropic anion), 37%.
Take `CCO` [Ethanol]: in assay [1], the “effect of co-solvent” value is “strongly inactivating”. Further, in assay [1] (setting [3]), the activity at 2 % came out at 27%, the activity at 5 % worked out at 10% and the activity at 10 % is 0%.
For `OCCO` [Ethylene glycol], in assay [1] (setting [3]), the activity at 2 % was determined as 63%, the activity at 5 % turned out to be 67% and the activity at 10 % was 45%.
As to `F` [F^-], the “effect of anion/salt” value in assay [1] is “some activation”. The “Relative activity of HSV-1 protease” value in assay [1] (setting [5]) was 6.15.
`OCC(O)CO` [Glycerol]: the “effect of co-solvent” value in assay [1] is “Activation was observed, albeit to a lesser extent”.
Turning to `O=P(O)(O)OP(=O)(O)O` [HP2 O7^3-], in assay [1] (setting [5]), the “Relative activity of HSV-1 protease” value came to 7.32.
With `O=P(O)(O)O` [HPO4^2- /PO4^3-, sodium phosphate], the “effect of anion/salt” value in assay [1] is listed as “strong activation”. Moreover, the “kcat /KM” value in assay [1] (0.8M salt present) stood at 2200 M⁻¹ s⁻¹. The “Relative activity of HSV-1 protease” value in assay [1] (setting [5]) was found to be 5.68.
Regarding `I` [I^-, iodide], the entries for the “effect of anion/salt” value in assay [1] and in assay [1] (listed as iodide) were “inhibition” and “inhibitory”, respectively. The entries for the “Relative activity of HSV-1 protease” value in assay [1] (setting [5]) and in assay [1] (setting [6]) were 0.07 and 0.00, respectively.
Consider `O=C(O)CC(C(=O)O)C(O)C(=O)O` (centres unmarked) [Isocitrate], for which, in assay [1] (setting [4]), the “Relative activity of HSV-1 protease” value turned out to be 3.53. The activity at 200000 µM in assay [1] (setting [3]) amounted to 772%.
`N[C@@H](CCC(=O)O)C(=O)O` [L-glutamate]: the activity at 200000 µM in assay [1] (setting [3]) was found to be 245%.
Consider `O=C(O)C[C@H](O)C(=O)O` [L-malate], for which, in assay [1] (setting [3]), the activity at 200000 µM came out at 404%.
As to `O=S(=O)(O)O` [SO4^2-, sulfate], in assay [1], the “effect of anion/salt” value is listed as “strong activation”. In addition, the “Relative activity of HSV-1 protease” value in assay [1] (setting [5]) is on record as 4.70.
As for `OC[C@@H](O)[C@@H](O)[C@H](O)[C@@H](O)CO` [Sorbitol], the “effect of co-solvent” value in assay [1] was “Activation was observed, albeit to a lesser extent”.
In the case of `O=C(O)CCC(=O)O` [Succinate], the “Relative activity of HSV-1 protease” value in assay [1] (pH 7.5) came out at 6.03. In assay [1] (setting [3]), the activity at 200000 µM was 397%.
On to `O=C(O)/C=C(/CC(=O)O)C(=O)O` [cis-Aconitrate], for which, in assay [1] (setting [4]), the “Relative activity of HSV-1 protease” value is 2.40. The activity at 200000 µM in assay [1] (setting [3]) came out at 506%.
